Measured values from the NIST ThermoML archive (doi:10.1021/je0340809).

Experiment: xn = mol fraction of the nth substance listed
Conditions: 101.3 kPa, Liquid

C=CN1CCCC1=O [N-vinylpyrrolidone] + O
Conditions | mass density [kg/m3] | speed of sound [m/s] | viscosity [mPa·s]
298.15 K, x2 = 0.0557 | 1042.3 | 1533.7 | 4.243
298.15 K, x2 = 0.1591 | 1043.33 | 1548.1 | –
298.15 K, x2 = 0.2543 | 1044.19 | 1563.3 | 3.875
298.15 K, x2 = 0.3503 | 1044.83 | 1580.9 | 3.75
298.15 K, x2 = 0.4525 | 1045.46 | 1598.7 | 3.717
298.15 K, x2 = 0.5028 | 1045.82 | 1609.9 | 3.742
298.15 K, x2 = 0.5539 | 1046.19 | 1618.5 | 3.792
298.15 K, x2 = 0.6546 | 1046.56 | 1635.8 | 3.91
298.15 K, x2 = 0.7505 | 1045.06 | 1649.2 | 3.904
298.15 K, x2 = 0.8519 | 1037.72 | 1648.2 | 3.466
298.15 K, x2 = 0.8751 | 1034.5 | 1646.7 | 3.255
298.15 K, x2 = 0.8852 | 1032.84 | 1644.4 | 3.145
298.15 K, x2 = 0.9001 | 1030.08 | 1640 | 2.962
298.15 K, x2 = 0.9251 | 1024.45 | 1623.7 | 2.591
298.15 K, x2 = 0.9357 | 1021.63 | 1613.8 | 2.408
298.15 K, x2 = 0.9554 | 1015.6 | 1589.5 | 2.021
298.15 K, x2 = 0.9649 | 1012.26 | 1574.7 | –
298.15 K, x2 = 0.9749 | 1008.43 | 1556.5 | 1.573
298.15 K, x2 = 0.9903 | 1001.77 | 1523.1 | 1.169
308.15 K, x2 = 0.0557 | 1033.43 | 1502.5 | 2.907
308.15 K, x2 = 0.1591 | 1034.36 | 1514.3 | 2.809
308.15 K, x2 = 0.2543 | 1035.14 | 1526.7 | 2.718
308.15 K, x2 = 0.3503 | 1035.73 | 1541.2 | 2.667
308.15 K, x2 = 0.4525 | 1036.33 | 1556.2 | 2.694
308.15 K, x2 = 0.5028 | 1036.61 | 1565.6 | 2.742
308.15 K, x2 = 0.5539 | 1037.01 | 1573.3 | 2.807
308.15 K, x2 = 0.6546 | 1037.41 | 1589.3 | 2.954
308.15 K, x2 = 0.7505 | 1036.16 | 1603.4 | 3.001
308.15 K, x2 = 0.8519 | 1029.8 | 1609.5 | 2.703
308.15 K, x2 = 0.8751 | 1026.99 | 1610.5 | 2.545
308.15 K, x2 = 0.8852 | 1025.54 | 1609.8 | 2.463
308.15 K, x2 = 0.9001 | 1023.12 | 1608.2 | 2.324
308.15 K, x2 = 0.9251 | 1018.18 | 1599.1 | 2.04
308.15 K, x2 = 0.9357 | 1015.71 | 1593.2 | 1.9
308.15 K, x2 = 0.9554 | 1010.4 | 1578.2 | 1.6
308.15 K, x2 = 0.9649 | 1007.47 | 1568.8 | 1.437
308.15 K, x2 = 0.9749 | 1004.09 | 1557.1 | 1.252
308.15 K, x2 = 0.9903 | 998.206 | 1535.4 | 0.932
318.15 K, x2 = 0.0557 | 1024.6 | 1470.5 | 2.552
318.15 K, x2 = 0.1591 | 1025.41 | 1480.4 | 2.454
318.15 K, x2 = 0.2543 | 1026.11 | 1490.9 | 2.362
318.15 K, x2 = 0.3503 | 1026.63 | 1503.3 | 2.305
318.15 K, x2 = 0.4525 | 1027.16 | 1516.6 | 2.31
318.15 K, x2 = 0.5028 | 1027.46 | 1524.9 | 2.34
318.15 K, x2 = 0.5539 | 1027.78 | 1532.1 | 2.385
318.15 K, x2 = 0.6546 | 1028.14 | 1547.7 | 2.488
318.15 K, x2 = 0.7505 | 1027.08 | 1563.3 | 2.509
318.15 K, x2 = 0.8519 | 1021.56 | 1576 | 2.249
318.15 K, x2 = 0.8751 | 1019.1 | 1579.4 | 2.115
318.15 K, x2 = 0.8852 | 1017.84 | 1580.1 | 2.046
318.15 K, x2 = 0.9001 | 1015.73 | 1580.9 | 1.929
318.15 K, x2 = 0.9251 | 1011.41 | 1577.9 | 1.692
318.15 K, x2 = 0.9357 | 1009.25 | 1575.3 | 1.576
318.15 K, x2 = 0.9554 | 1004.59 | 1567.9 | 1.326
318.15 K, x2 = 0.9649 | 1002.02 | 1562.9 | 1.191
318.15 K, x2 = 0.9749 | 999.05 | 1556.6 | 1.037
318.15 K, x2 = 0.9903 | 993.883 | 1544.4 | 0.776
328.15 K, x2 = 0.0557 | 1015.77 | 1433 | 2.221
328.15 K, x2 = 0.1591 | 1016.49 | 1441.7 | 2.128
328.15 K, x2 = 0.2543 | 1017.1 | 1451.2 | 2.042
328.15 K, x2 = 0.3503 | 1017.56 | 1462.3 | 1.983
328.15 K, x2 = 0.4525 | 1018.03 | 1474.7 | 1.975
328.15 K, x2 = 0.5028 | 1018.3 | 1482.4 | 1.993
328.15 K, x2 = 0.5539 | 1018.58 | 1489.6 | 2.025
328.15 K, x2 = 0.6546 | 1018.91 | 1505.7 | 2.096
328.15 K, x2 = 0.7505 | 1018 | 1523.4 | 2.103
328.15 K, x2 = 0.8519 | 1013.18 | 1542.9 | 1.876
328.15 K, x2 = 0.8751 | 1011.04 | 1548.6 | 1.763
328.15 K, x2 = 0.8852 | 1009.94 | 1550.7 | 1.705
328.15 K, x2 = 0.9001 | 1008.09 | 1553.7 | 1.609
328.15 K, x2 = 0.9251 | 1004.31 | 1556.2 | 1.411
328.15 K, x2 = 0.9357 | 1002.41 | 1556.5 | 1.314
328.15 K, x2 = 0.9554 | 998.333 | 1556.6 | 1.108
328.15 K, x2 = 0.9649 | 996.075 | 1554.4 | 0.995
328.15 K, x2 = 0.9749 | 993.467 | 1552.6 | 0.868
328.15 K, x2 = 0.9903 | 988.924 | 1548.5 | 0.652
338.15 K, x2 = 0.0557 | 1006.93 | 1406 | 1.807
338.15 K, x2 = 0.1591 | 1007.56 | 1413.8 | 1.736
338.15 K, x2 = 0.2543 | 1008.1 | 1422.3 | 1.668
338.15 K, x2 = 0.3503 | 1008.51 | 1432.4 | 1.624
338.15 K, x2 = 0.4525 | 1008.92 | 1444.1 | 1.621
338.15 K, x2 = 0.5028 | 1009.15 | 1451.3 | 1.639
338.15 K, x2 = 0.5539 | 1009.4 | 1458.3 | 1.667
338.15 K, x2 = 0.6546 | 1009.7 | 1474.6 | 1.73
338.15 K, x2 = 0.7505 | 1008.9 | 1493.7 | 1.739
338.15 K, x2 = 0.8519 | 1004.69 | 1517.9 | 1.557
338.15 K, x2 = 0.8751 | 1002.82 | 1525.2 | 1.466
338.15 K, x2 = 0.8852 | 1001.85 | 1528.2 | 1.42
338.15 K, x2 = 0.9001 | 1000.23 | 1532.8 | 1.34
338.15 K, x2 = 0.9251 | 996.917 | 1539.1 | 1.18
338.15 K, x2 = 0.9357 | 995.252 | 1541.5 | 1.1
338.15 K, x2 = 0.9554 | 991.671 | 1545.5 | 0.931
338.15 K, x2 = 0.9649 | 989.687 | 1547 | 0.84
338.15 K, x2 = 0.9749 | 987.393 | 1548.4 | 0.736
338.15 K, x2 = 0.9903 | 983.396 | 1550.2 | 0.56
